Consider 15 compounds from patent publication US11813306B2, “Cyclic tetramer compounds as proprotein convertase subtilisin/kexin type 9 (PCSK9) inhibitors for the treatment of metabolic disorders” (NOVARTIS AG, priority 2018, dated 2023).

For the assay, the target named is human PCSK9 (Homo sapiens, UniProt Q8NBP7). The experiment in a line: PCSK9 ligand binding assay (TR-FRET): interference with binding of human PCSK9 to human LDLR. The conditions noted are these: for IC50: Human PCSK9 Alexa Fluor 647 / Human LDLR extracellular domain-Europium Kryptate; for Max % inhibition: efficacy (Amax), 100% = 1 uM unlabeled human PCSK9, 0% = DMSO. The gist of the method: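 Read-out was TR-FRET ratio (665 nm over 615 nm, 330 nm excitation) between Alexa Fluor 647-human PCSK9 (16 nM added) and Europium Kryptate-human LDLR ectodomain (4 nM added). Compound and PCSK9 were mixed 30 min before LDLR, then incubated 2 h. Inhibition was normalised to DMSO and unlabelled-PCSK9 controls, giving IC50 and Amax.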
human PCSK9, sequence (Q8NBP7 153-692): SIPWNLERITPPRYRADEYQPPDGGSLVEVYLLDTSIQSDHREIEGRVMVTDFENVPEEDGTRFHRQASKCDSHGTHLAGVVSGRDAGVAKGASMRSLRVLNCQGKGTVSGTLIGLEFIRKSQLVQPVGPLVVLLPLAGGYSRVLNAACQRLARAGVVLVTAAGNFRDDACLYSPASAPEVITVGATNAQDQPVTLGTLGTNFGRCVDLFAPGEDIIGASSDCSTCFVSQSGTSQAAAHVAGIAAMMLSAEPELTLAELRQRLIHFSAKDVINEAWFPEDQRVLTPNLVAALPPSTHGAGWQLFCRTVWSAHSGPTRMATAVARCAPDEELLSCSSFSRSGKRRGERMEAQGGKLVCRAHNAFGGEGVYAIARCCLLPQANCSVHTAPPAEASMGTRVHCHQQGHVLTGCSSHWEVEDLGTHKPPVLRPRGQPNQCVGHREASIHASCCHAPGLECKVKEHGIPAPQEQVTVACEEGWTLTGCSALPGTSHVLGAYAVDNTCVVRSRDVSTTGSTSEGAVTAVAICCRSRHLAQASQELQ
human PCSK9, sequence (Q8NBP7 31-152 partner limits assumed): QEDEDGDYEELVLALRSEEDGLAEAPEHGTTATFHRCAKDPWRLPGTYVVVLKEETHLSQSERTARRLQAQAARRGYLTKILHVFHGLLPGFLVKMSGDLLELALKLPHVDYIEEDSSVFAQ

As for `COC[C@@H]1NC(=O)[C@H](C)N(Cc2ccc(Cl)cc2Oc2ccc(-c3cnc(CN4CCCC4)n3C)cc2)C(=O)C[C@@H]([C@H]2CCc3ccccc32)C(=O)N(C)C[C@@H](Cc2ccc(Cl)cc2)N(C)C1=O.Cl` [Compound 101, (2S, 5S, 8R, 12S)-1-(4-chloro-2-(4-(1-methyl-2-(pyrrolidin-1-ylmethyl)-1H-imidazol-5-yl)phenoxy)benzyl)-8-(4-chlorobenzyl)-12-((R)-2,3-dihydro-1H-inden-1-yl)-5-(methoxymethyl)-2,7,10-trimethyl-1,4,7,10-tetraazacyclotetradecane-3,6,11,14-tetraone], the half-maximal inhibitory concentration (IC50) (in general, the concentration that gives 50% inhibition) stood at 1.94 nM and the Max % inhibition came to 98.3%.

`C[C@H]1C(=O)N[C@@H](CO)C(=O)N(C)[C@H](Cc2ccc(Cl)cc2)CN(C)C(=O)[C@H]([C@H]2COc3ccccc32)CC(=O)N1Cc1ccc(Cl)cc1Oc1ccc(-c2cnc(CN3CCCC3)n2C)cc1.Cl` [Compound 102, (2S, 5S, 8R, 12S)-1-(4-chloro-2-(4-(1-methyl-2-(pyrrolidin-1-ylmethyl)-1H-imidazol-5-yl)phenoxy)benzyl)-8-(4-chlorobenzyl)-12-((R)-2,3-dihydrobenzofuran-3-yl)-5-(hydroxymethyl)-2,7,10-trimethyl-1,4,7,10-tetraazacyclotetradecane-3,6,11,14-tetraone]: the IC50 was determined as 1.38 nM and the Max % inhibition is listed as 100.8%.

As to `COc1cccc2c1OC[C@@H]2[C@@H]1CC(=O)N(Cc2ccc(Cl)cc2Oc2ccc(-c3cnc(CN4CCCC4)n3C)cc2)[C@@H](C)C(=O)N[C@@H](CO)C(=O)N(C)[C@H](Cc2ccc(Cl)cc2)CN(C)C1=O.Cl` [Compound 103, (2S, 5S, 8R, 12S)-1-(4-chloro-2-(4-(1-methyl-2-(pyrrolidin-1-ylmethyl)-1H-imidazol-5-yl)phenoxy)benzyl)-8-(4-chlorobenzyl)-5-(hydroxymethyl)-12-((R)-7-methoxy-2,3-dihydrobenzofuran-3-yl)-2,7,10-trimethyl-1,4,7,10-tetraazacyclotetradecane-3,6,11,14-tetraone], the IC50 was determined as 2.08 nM and the Max % inhibition is on record as 98.4%.

Regarding `CCOCCOCCOCc1ncc(-c2ccc(Oc3cc(Cl)ccc3CN3C(=O)N[C@@H](Cc4ccccc4)C(=O)N4CCC[C@@](Cc5ccc(Cl)cc5)(C4)NC(=O)[C@H](CO)NC(=O)[C@@H]3C)cc2)n1C.Cl` [Compound 104], the IC50 worked out at 1.84 nM and the Max % inhibition was 69.1%.

Turning to `COC[C@@H]1NC(=O)[C@H](CCF)N(Cc2ccc(Cl)cc2Oc2ccc(-c3cnc(CN(C)C)n3C)cc2)C(=O)C[C@@H](Cc2ccccc2)C(=O)N2CCC[C@@](Cc3ccc(Cl)cc3)(C2)NC1=O.Cl` [Compound 105, (3R,7S,10S,13R)-3-benzyl-6-(4-chloro-2-(4-(2-((dimethylamino)methyl)-1-methyl-1H-imidazol-5-yl)phenoxy)benzyl)-13-(4-chlorobenzyl)-7-(2-fluoroethyl)-10-(methoxymethyl)-1,6,9,12-tetraazabicyclo[11.3.1]heptadecane-2,5,8,11-tetraone hydrochloride], the IC50 turned out to be 6.12 nM and the Max % inhibition is listed as 97.0%.

In the case of `C[C@H]1C(=O)N[C@@H](CO)C(=O)N(C)[C@H](Cc2ccc(Cl)cc2)CN(C)C(=O)[C@H](Cc2ccccc2)CC(=O)N1Cc1ccc(Cl)cc1Oc1cc(F)c(-c2cnc(CN3CCCC3)n2C)c(F)c1.Cl` [Compound 106, (2S, 5S, 8R, 12R)-12-benzyl-1-(4-chloro-2-(3,5-difluoro-4-(1-methyl-2-(pyrrolidin-1-ylmethyl)-1H-imidazol-5-yl)phenoxy)benzyl)-8-(4-chlorobenzyl)-5-(hydroxymethyl)-2,7,10-trimethyl-1,4,7,10-tetraazacyclotetradecane-3,6,11,14-tetraone], the 50% inhibitory concentration (IC50) was 8.52 nM and the Max % inhibition is recorded as 105.1%.

For the compound `C[C@@H](c1ccccc1)[C@@H]1CC(=O)N(Cc2ccc(Cl)cc2Oc2ccc(-c3cnc(CN4CCCC4)n3C)cc2)[C@@H](C)C(=O)N[C@@H](CO)C(=O)N(C)[C@H](Cc2ccc(Cl)cc2)CN(C)C1=O.Cl` [Compound 107, (2S, 5S, 8R, 12S)-1-(4-chloro-2-(4-(1-methyl-2-(pyrrolidin-1-ylmethyl)-1H-imidazol-5-yl)phenoxy)benzyl)-8-(4-chlorobenzyl)-5-(hydroxymethyl)-2,7,10-trimethyl-12-((R)-1-phenylethyl)-1,4,7,10-tetraazacyclotetradecane-3,6,11,14-tetraone], the IC50 turned out to be 7.83 nM and the Max % inhibition is 105.6%.

As to `C[C@H]1C(=O)N[C@@H](CO)C(=O)N(C)[C@H](Cc2ccc(Cl)cc2)CN(C)C(=O)[C@H](Cc2ccccc2)CC(=O)N1Cc1ccc(Cl)cc1Oc1ccc(-c2cnc(CN3CCCC3)n2C)cc1.Cl` [Compound 108, (2S, 5S, 8R, 12R)-12-benzyl-1-(4-chloro-2-(4-(1-methyl-2-(pyrrolidin-1-ylmethyl)-1H-imidazol-5-yl)phenoxy)benzyl)-8-(4-chlorobenzyl)-5-(hydroxymethyl)-2,7,10-trimethyl-1,4,7, 10-tetraazacyclotetradecane-3,6,11,14-tetraone], the IC50 turned out to be 9.32 nM and the Max % inhibition was found to be 104.6%.

On to `C[C@H](O)[C@@H]1NC(=O)[C@H](C)N(Cc2ccc(Cl)cc2Oc2ccc(-c3cnc(CN(C)C)n3C)cc2)C(=O)C[C@@H](Cc2ccccc2)C(=O)N2CCC[C@@](Cc3ccc(Cl)cc3)(C2)NC1=O` [Compound 109, (3R, 7S, 10S, 13R)-3-benzyl-6-(4-chloro-2-(4-(2-((dimethylamino)methyl)-1-methyl-1H-imidazol-5-yl)phenoxy)benzyl)-13-(4-chlorobenzyl)-10-((S)-1-hydroxyethyl)-7-methyl-1,6,9,12-tetraazabicyclo[11.3.1]heptadecane-2,5,8,11-tetraone], for which the IC50 came to 11.1 nM and the Max % inhibition is on record as 82.0%.

As for `COC[C@@H]1NC(=O)[C@H](C)N(Cc2ccc(Cl)cc2Oc2ccc(-c3cnc(CN4CCCC4)n3C)cc2)C(=O)C[C@@H]([C@H]2COc3c(OC)cccc32)C(=O)N(C)C[C@@H](Cc2ccc(Cl)cc2)N(C)C1=O.Cl` [Compound 110, (2S, 5S, 8R, 12S)-1-(4-chloro-2-(4-(1-methyl-2-(pyrrolidin-1-ylmethyl)-1H-imidazol-5-yl)phenoxy)benzyl)-8-(4-chlorobenzyl)-12-((R)-7-methoxy-2,3-dihydrobenzofuran-3-yl)-5-(methoxymethyl)-2,7,10-trimethyl-1,4,7,10-tetraazacyclotetradecane-3,6,11,14-tetraone], the IC50 is 10.2 nM and the Max % inhibition was determined as 102.2%.

For `COC[C@@H]1NC(=O)[C@H](C)N(Cc2ccc(Cl)cc2Oc2ccc(-c3cnc(CN4CCCC4)n3C)cc2)C(=O)C[C@@H]([C@H]2CC(C)(C)c3ccccc32)C(=O)N(C)C[C@@H](Cc2ccc(Cl)cc2)N(C)C1=O.Cl` [Compound 111, (2S, 5S, 8R, 12S)-1-(4-chloro-2-(4-(1-methyl-2-(pyrrolidin-1-ylmethyl)-1H-imidazol-5-yl)phenoxy)benzyl)-8-(4-chlorobenzyl)-12-((R)-3,3-dimethyl-2,3-dihydro-1H-inden-1-yl)-5-(methoxymethyl)-2,7,10-trimethyl-1,4,7,10-tetraazacyclotetradecane-3,6,11,14-tetraone], the IC50 turned out to be 11.4 nM and the Max % inhibition was found to be 102.4%.

On to `CC[C@@H]1CC(=O)N(Cc2c(OCC(F)(F)F)cc(Cl)cc2Oc2ccc(-c3cnc(CN4CCCC4)n3C)cc2)[C@@H](C)C(=O)N[C@@H](CO)C(=O)N(C)[C@H](Cc2ccc(Cl)cc2)CNC1=O.Cl` [Compound 112, (2S, 5S, 8R, 12R)-1-(4-chloro-2-(4-(1-methyl-2-(pyrrolidin-1-ylmethyl)-1H-imidazol-5-yl)phenoxy)-6-(2,2,2-trifluoroethoxy)benzyl)-8-(4-chlorobenzyl)-12-ethyl-5-(hydroxymethyl)-2,7-dimethyl-1,4,7,10-tetraazacyclotetradecane-3,6,11,14-tetraone], for which the IC50 was determined as 13.5 nM and the Max % inhibition is 98.8%.

As for `COC[C@@H]1NC(=O)[C@H](C)N(Cc2ccc(Cl)cc2Oc2ccc(-c3cnc(CN4CCCC4)n3C)cc2)C(=O)C[C@@H]([C@H]2CCc3ccccc32)C(=O)N(CCC(F)F)C[C@@H](Cc2ccc(Cl)cc2)N(C)C1=O.Cl` [Compound 113], the half-inhibitory concentration (IC50) was 21.6 nM and the Max % inhibition worked out at 102.5%.

For the compound `COC[C@@H]1NC(=O)[C@H](C)N(Cc2ccc(Cl)cc2Oc2ccc(-c3cnc(CN4CCCC4)n3C)cc2)C(=O)C[C@@H](Cc2ccccc2)C(=O)N(C)C[C@@H](Cc2ccc(Cl)cc2)N(C)C1=O.Cl` [Compound 114, (2S, 5S, 8R, 12R)-12-benzyl-1-(4-chloro-2-(4-(1-methyl-2-(pyrrolidin-1-ylmethyl)-1H-imidazol-5-yl)phenoxy)benzyl)-8-(4-chlorobenzyl)-5-(methoxymethyl)-2,7,10-trimethyl-1,4,7,10-tetraazacyclotetradecane-3,6,11,14-tetraone], the IC50 was 21.4 nM and the Max % inhibition is on record as 95.9%.

Turning to `COC[C@@H]1NC(=O)[C@H](C)N(Cc2ccc(Cl)cc2Oc2ccc(-c3cnc(CN4CCCC4)n3C)cc2)C(=O)C[C@@H]([C@H]2CCc3ccccc32)C(=O)N(CC2(C)CC2)C[C@@H](Cc2ccc(Cl)cc2)N(C)C1=O.Cl` [Compound 115, (2S, 5S, 8R, 12S)-1-(4-chloro-2-(4-(1-methyl-2-(pyrrolidin-1-ylmethyl)-1H-imidazol-5-yl)phenoxy)benzyl)-8-(4-chlorobenzyl)-12-((R)-2,3-dihydro-1H-inden-1-yI)-5-(methoxymethyl)-2,7-dimethyl-10-((1-methylcyclopropyl)methyl)-1,4,7,10-tetraazacyclotetradecane-3,6,11,14-tetraone], the concentration for half-maximal inhibition (IC50) came out at 25 nM and the Max % inhibition is 99.0%.
